Literature values as cited in US7288270B1, “Therapeutic composition for the prevention and treatment of mucositis and mucosal disorders” (priority 2002, dated 2007).

Experiments:
Pseudomonas aeruginosa = conditions: in the solvent dimethyl sulfoxide; one range given for three species
Enterococcus faecalis = conditions: in the solvent dimethyl sulfoxide; one range given for three species
[1] = test system: dermatophytes (Trichophyton mentagrophytes, Trichophyton tonsurans, Trichophyton rubrum, Epidermophyton floccosum, Microsporum gypseum)
HSV-1 = conditions: dose-dependent, reversible manner
HSV-2 = conditions: dose-dependent, reversible manner
Staphylococcus aureus = conditions: in the solvent dimethyl sulfoxide; one range given for three species
mucositis [2] = conditions: human, in vivo
[3] = test system: Gram negative bacteria that tend to colonize the oral cavity; conditions: patients undergoing radiation therapy
eczema = conditions: ointment, topical
mucositis [4] = conditions: subsequent randomized and controlled studies
Herpes virus = conditions: in test tubes

Structure (SMILES): Oc1ccc(/C=C/c2cc(O)cc(O)c2)cc1 [resveratrol, 3,5,4′-trihdyroxystilbene]
- concentration at which growth was inhibited (Pseudomonas aeruginosa): 171 to 342 µg/mL
- concentration at which growth was inhibited (Enterococcus faecalis): 171 to 342 µg/mL
- concentration at which growth of dermatophytes was inhibited [1]: 25 to 50 µg/mL
- inhibition of HSV-1 replication (HSV-1): inhibit
- inhibition of HSV-2 replication (HSV-2): inhibit
- concentration at which growth was inhibited (Staphylococcus aureus): 171 to 342 µg/mL

Structure (SMILES): [H]/N=C(\N/C(=N/[H])NCCCCCCNC(=N)NC(=N)Nc1ccc(Cl)cc1)Nc1ccc(Cl)cc1 [chlorhexidine, Chlorhexidine]
- incidence of mucositis (mucositis [2]): higher incidence of mucositis
- effectiveness against Gram negative bacteria of the oral cavity [3]: relatively ineffective

Structure (SMILES): CC1(C)[C@@H](O)CC[C@]2(C)[C@H]3C(=O)C=C4[C@@H]5C[C@@](C)(C(=O)O)CC[C@]5(C)CC[C@@]4(C)[C@]3(C)CC[C@@H]12 [glycyrrhetinic acid]
- improvement of eczema compared with hydrocortisone (eczema): as effective as hydrocortisone

Structure (SMILES): CC(=O)CCCCn1c(=O)c2c(ncn2C)n(C)c1=O [pentoxifylline]
- benefit in mucositis (mucositis [4]): failed to demonstrate any benefit

Structure (SMILES): CC1(C)[C@@H](O[C@H]2O[C@H](C(=O)O)[C@@H](O)[C@H](O)[C@H]2O[C@@H]2O[C@H](C(=O)O)[C@@H](O)[C@H](O)[C@H]2O)CC[C@]2(C)[C@H]3C(=O)C=C4[C@@H]5C[C@@](C)(C(=O)O)CC[C@]5(C)CC[C@@]4(C)[C@]3(C)CC[C@@H]12 [glycyrrhizic acid]
- inhibition of herpes virus (Herpes virus): inhibited
